Values after ≈ are worked out from the molar mass of the structure shown.
Legend:
[1] = Cytotoxicity against human PLC/PRF/5 cells; format: functional; conditions: read-out: ED50 (the source's name)
[2] = tested on: KB; experiment: Cytotoxicity against human KB cells; format: functional; conditions: read-out: ED50 (the source's name)

| SMILES | EC50 [1] [µg/mL] | EC50 [2] [µg/mL] |
| --- | --- | --- |
| Cc1cc(O)c2c(c1)C(=O)c1cc(O)cc(O)c1C2=O [EMODIN] | 5.91 (≈ 21.9 µM) | 3.46 (≈ 12.8 µM) |
| COc1cc(O)c2c(c1)C(=O)c1cc(C)cc(O)c1C2=O [PHYSCION] | 1.44 (≈ 5.07 µM) | 1.55 (≈ 5.45 µM) |
| Cc1cc(O)c2c(c1)C(=O)c1cc(O[C@@H]3OC[C@](O)(CO)[C@H]3O)cc(O)c1C2=O [FRANGULIN B] | 0.8 (≈ 1.99 µM) | 2.49 (≈ 6.19 µM) |
| Cc1cc(O)c2c(c1)C(=O)c1cccc(O)c1C2=O [CHRYSOPHANOL] | 3.23 (≈ 12.7 µM) | 5.68 (≈ 22.3 µM) |

From ChEMBL document CHEMBL1149724, “Nakahalene and Cytotoxic principles of Formosan Rhamnus Species” (1992)
